Laboratory results taken from publication PMC2654718 (Biochemistry, 2009).

What was measured:
[1] = mice; cited from earlier work
[2] = test system: serum vitamin D binding protein; settings: cited from earlier work
MBP-VDR-LBDmt = biological target: T1, MBP-VDR-LBDmt (Homo sapiens, UniProt P11473, DEL165-215); assay: Fluorescence polarization peptide binding assay; settings: FP
T1 sequence (P11473 with tags, fused parts or gaps DEL165-215 limits assumed): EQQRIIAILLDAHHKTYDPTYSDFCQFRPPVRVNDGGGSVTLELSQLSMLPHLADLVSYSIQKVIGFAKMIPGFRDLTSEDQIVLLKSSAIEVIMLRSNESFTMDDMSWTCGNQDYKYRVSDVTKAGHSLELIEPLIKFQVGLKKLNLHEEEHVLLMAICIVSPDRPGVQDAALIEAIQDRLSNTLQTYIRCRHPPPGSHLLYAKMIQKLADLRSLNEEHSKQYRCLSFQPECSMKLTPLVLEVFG

VDR-LBD = biological target: T2, VDR-LBD (Homo sapiens, UniProt P11473, DEL165-215); assay: Isothermal titration calorimetry of SRC2-3 peptides with VDR-LBD; settings: 25 °C, 20 mM HEPES pH 7.5, 150 mM NaCl; for n: ITC stoichiometry; for ΔH: ITC
T2 sequence (P11473 with tags, fused parts or gaps DEL165-215 limits assumed): T1 sequence (P11473 with tags, fused parts or gaps DEL165-215 limits assumed)

Binding affinity towards VDR (in words) (MBP-VDR-LBDmt; in the presence of ligand) | Binding in the absence of ligand (in words) (MBP-VDR-LBDmt; no ligand, no plateau at higher protein concentrations) | SMILES | Influence on calcium serum levels (in words) [1] | Binding to serum vitamin D binding protein (in words) [2] | n (VDR-LBD) | ΔH (VDR-LBD) [kcal/mol]
– | – | CCC(CC)(c1ccc(OCC(O)CO)c(C)c1)c1ccc(OCC(O)C(C)(C)C)c(C)c1 (centres unmarked) [LG190178] | no influence | does not bind | – | –
High affinity binding | weak or no binding | CC(C)C[C@H](NC(=O)[C@H](C)NC(=O)[C@H](CC(N)=O)NC(=O)[C@H](CCC(=O)O)NC(=O)[C@H](CCCCN)NC(=O)[C@H](CCCCN)NC(=O)[C@H](CCCCN)NC(=O)[C@@H](N)CS)C(=O)N[C@@H](CC(C)C)C(=O)N[C@@H](CCCNC(=N)N)C(=O)N[C@@H](Cc1ccc(O)cc1)C(=O)N[C@@H](CC(C)C)C(=O)N[C@@H](CC(C)C)C(=O)N[C@@H](CC(=O)O)C(=O)N[C@@H](CCCCN)C(=O)N[C@@H](CC(=O)O)C(=O)N[C@@H](CC(=O)O)C(=O)N[C@H](C(=O)N[C@@H](CCCCN)C(=O)N[C@@H](CC(=O)O)C(=O)O)[C@@H](C)O [SRC2-3] | – | – | 1.02±0.02 | -6.7 ± 0.3
– | – | CC(C)C[C@H](NC(=O)[C@H](C)NC(=O)[C@H](CC(N)=O)NC(=O)[C@H](CCC(=O)O)NC(=O)[C@H](CCCCN)NC(=O)[C@H](CCCCN)NC(=O)[C@H](CCCCN)NC(=O)[C@@H](N)CSC1CC(=O)N(CCNS(=O)(=O)c2ccc(C3=c4cc5c6c(c4Oc4c3cc3c7c4CCCN7CCC3)CCC[N+]=6CCC5)c(S(=O)(=O)[O-])c2)C1=O)C(=O)N[C@@H](CC(C)C)C(=O)N[C@@H](CCCNC(=N)N)C(=O)N[C@@H](Cc1ccc(O)cc1)C(=O)N[C@@H](CC(C)C)C(=O)N[C@@H](CC(C)C)C(=O)N[C@@H](CC(=O)O)C(=O)N[C@@H](CCCCN)C(=O)N[C@@H](CC(=O)O)C(=O)N[C@@H](CC(=O)O)C(=O)N[C@H](C(=O)N[C@@H](CCCCN)C(=O)N[C@@H](CC(=O)O)C(=O)O)[C@@H](C)O (some centres unmarked) [SRC2-3_Texas-Red] | – | – | 0.93±0.04 | -2.2 ± 0.12
